PMC10177380 (Cancers, 2023)
Read-outs that look alike come from different tables or passages of the source.

Tests used:
HT29 colon cells = test: Mitochondrial membrane potential, TMRE-MtMP assay; type: cell-based, human; conditions: treatment at GI50 concentration (FCCP positive control 20 μM)
Description: To study the MtMP changes in treated cells, a TMRE-MtMP Assay Kit (Abcam, Cambridge, MA, USA) was used (see Supplementary Materials).
TMRE was used to stain HT29 colon cells, and treatment with the complexes and ligands was completed at each specific GI50 concentration. The MtMP changes detected are expressed as RFU. Additionally, lower RFU values correspond to a decline in mitochondrial activity. […]
dimethylthiazol-2-yl]-2,5-diphenyltetrazolium bromide) assay and absorbance was read at 540 nm. An eight-point dose response curve was produced from which the GI50 value was calculated, representing the drug concentration at which cell growth was inhibited by 50% based on the difference between the optical density values on day 0 and those at the end of drug exposure. […]
5. Mitochondrial Membrane Potential (MtMP)
In 96-well plates, 25,000 cells/mL of HT29 colon cells in DMEM were seeded. Cells were treated with a GI50 drug concentration for each complex. […]
washed with PBS and stained with 1 μM tetramethylrhodamine, ethyl ester (TMRE) and incubated for 30 min. TMRE was then removed, and cells were then re-washed with PBS (0.2% BSA), after which phenol red free media was added. The plates were directly scanned to measure fluorescence (expressed as RFU), using the Glo-Max®-Multimode […]
microplate reader (Promega Corporation, Alexandra, VIC, Australia) at an […]
For the positive control, 20 μM carbonyl cyanide 4-(trifluoromethoxy) phenylhydrazone (FCCP)) was added to the cells and incubated for 10 min. The cells were washed with PBS (0.2% BSA) and stained with TMRE (1 μM) for 30 min; this was removed and phenol red free media was added, and the final solution was scanned as mentioned above. […]

COX-2 (human) = target: T1, COX-2 (human) (Homo sapiens, UniProt P35354); test: COX-2 (human) Inhibitor Screening Assay Kit (ELISA); type: biochemical; parameters: concentration or dose not given beside the values
T1 construct: purchased Cayman Chemical Item No. 701080
T1 sequence (P35354 18-604): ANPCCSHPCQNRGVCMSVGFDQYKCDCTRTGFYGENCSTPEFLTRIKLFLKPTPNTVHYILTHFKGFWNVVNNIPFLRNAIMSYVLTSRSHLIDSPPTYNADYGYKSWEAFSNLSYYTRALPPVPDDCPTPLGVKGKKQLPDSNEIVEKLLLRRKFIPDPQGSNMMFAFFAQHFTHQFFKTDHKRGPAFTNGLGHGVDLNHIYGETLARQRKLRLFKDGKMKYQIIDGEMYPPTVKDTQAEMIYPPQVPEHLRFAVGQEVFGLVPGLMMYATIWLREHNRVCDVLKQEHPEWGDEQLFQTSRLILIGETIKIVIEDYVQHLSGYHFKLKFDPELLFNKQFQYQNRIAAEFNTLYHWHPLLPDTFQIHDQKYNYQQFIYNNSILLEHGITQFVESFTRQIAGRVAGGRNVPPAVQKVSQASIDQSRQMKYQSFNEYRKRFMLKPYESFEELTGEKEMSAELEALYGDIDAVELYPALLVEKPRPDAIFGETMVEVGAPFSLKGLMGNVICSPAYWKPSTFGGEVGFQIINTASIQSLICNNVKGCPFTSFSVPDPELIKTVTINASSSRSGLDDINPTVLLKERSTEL
Description: NSAIDs are well recognised as inhibitors of the COX enzymes, COX-1 and COX-2 [37, 42, 45]. […] COX-1 is typically expressed in most tissues and is associated with normal physiological functions, particularly by maintaining prostaglandin production at basal levels. In contrast, COX-2 is involved in the excessive production of prostaglandin during inflammation (or hypoxia), and extensive studies have shown that COX-2 resultant prostaglandins are overexpressed in tumours. […] To explore the COX-2 inhibitory properties of the studied complexes (1–6), ELISA was used against the COX-2 enzyme. […]
6. Cyclooxygenase-2 (COX-2) Inhibition
The standards, samples and assay preparation, and completion were achieved as instructed by the manufacturer. The assay necessitated three steps, being the standards preparation, the COX reaction, and the enzyme immunoassay. The standards were prepared in 2-fold serial dilution of the prostaglandin F2α enzyme-linked immunosorbent assay (ELISA) standard starting at 500 pg/mL to 3.9 pg/mL in ELISA buffer (1X). The COX reaction dilution preparation for the background samples included the addition of background COX-2 (20 μL), which was inactivated in boiling water for 3 min. The background values were generated by adding 10 μL of the inactivated COX-2, 160 μL of the reaction buffer (1X), 10 μL of heme and 10 μL of DMSO (inhibitor vehicle). The COX reaction dilution preparation for the COX-2 100% initial activity samples included the addition 160 μL of the reaction buffer (1X), 10 μL of heme, 10 μL of COX-2 and 10 μL of DMSO (inhibitor vehicle). The COX reaction dilution preparation for the COX-2 inhibitor samples included the addition of 160 μL of the reaction buffer (1X), 10 μL of heme, 10 μL […]
The reaction was then initiated by the addition of 10 μL of arachidonic acid and potassium hydroxide solution (1:1), and […]
enzyme catalysis. The tubes were then vortexed and incubated for 5 min at room […]
temperature. The background samples were diluted with ELISA buffer (1X) 1:100 times […]
and the COX-2 100% initial activity and COX-2 inhibitor samples were diluted 1:2000 and […]
1:4000 times. For the enzyme immunoassay, 100 μL of the ELISA buffer (1X) was added […]
to non-specific binding wells (NSBs), 50 μL of the ELISA buffer (1X) was added to […]
maximum binding wells (B0) and 50 μL of each prostaglandin F2α standard was added to […]
standard wells in duplicates. 50 μL of background sample and 50 μL of COX-2 100% […]
initial activity samples were independently added to the wells in duplicates. Inhibitor […]
samples (50 μL) being investigated were added to the wells in triplicates. Prostaglandin […]
F2α acetyl-cholinesterase (AChE) tracer (50 μL) was added to all wells but the total […]
activity well and blank wells. Prostaglandin F2α ELISA antiserum (50 μL) was added to […]
each well but the total activity well, NSBs and blank wells. The plate was then covered […]
with a plastic seal and incubated overnight at room temperature on an orbital shaker. The […]
wells were then washed five times using kit wash buffer (1X). Ellman’s reagent (200 μL) […]
was then added to each well, as well as 5 μL of the AChE tracer into the total activity […]
well. The plate was then covered with the plastic seal, placed on an orbital shaker in the […]
dark to develop for 2 hours at room temperature. […]
nm using the SpectraMax M2 series multi-mode microplate reader (Molecular Devices, […]

Du145 prostate = test: MTT growth inhibition, 72 h, Du145; type: cell-based; conditions: for GI50: Du145, MTT, 72 h
BE2C neuroblastoma = test: MTT growth inhibition, 72 h, BE2C; type: cell-based; conditions: for GI50: BE2C, MTT, 72 h

| SMILES | MtMP Changes (HT29 colon cells; HT29, 24 h) [RFU] | MtMP Changes (HT29 colon cells; HT29, 48 h) [RFU] | MtMP Changes (HT29 colon cells; HT29, 72 h) [RFU] | Percentage COX-2 Inhibitory Activity (COX-2 (human)) [%] | GI50 (Du145 prostate) [µM] | GI50 (BE2C neuroblastoma) [µM] | GI50 (Du145 prostate; Homo sapiens, DU-145) [µM] | GI50 (BE2C neuroblastoma; Homo sapiens, BE(2)-C) [µM] | Percentage COX-2 Inhibitory Activity (COX-2 (human); 72 h) [%] | fold more potent than its platinum(II) precursor (Du145 prostate; Du145) [fold] | fold more potent than carboplatin (Du145 prostate) | fold more potent than cisplatin (Du145 prostate) | fold more potent than its platinum(II) precursor (Du145 prostate) [fold] | fold more potent than oxaliplatin (Du145 prostate) [fold] | fold decrease of GI50 relative to the platinum(IV) scaffold (BE2C neuroblastoma) [fold] |
| --- | --- | --- | --- | --- | --- | --- | --- | --- | --- | --- | --- | --- | --- | --- | --- |
| Cc1cc2c3c4c1=CC=C[N]4[Pt+2][N]3C=CC=2.N[C@H]1CCCC[C@@H]1N [Complex 5MESS] | 210 ± 15 | 204 ± 6 | 144 ± 5 | 6 ± 3 |  |  |  |  |  |  |  |  |  |  |  |
| Cc1c(C)c2cccnc2c2ncccc12.N[C@H]1CCCC[C@@H]1N.[Pt] [Complex 56MESS, [Pt^II(5,6-Me2phen)(SS-DACH)]^2+] | 156 ± 10 | 162 ± 13 | 103 ± 7 | 5 ± 4 |  |  |  |  |  |  |  |  |  |  |  |
| C1=C[N]2[Pt+2][N]3C=CC=c4ccc(c2c43)=C1.N[C@H]1CCCC[C@@H]1N [PHENSS] | 289 ± 17 | 271 ± 15 | 237 ± 10 | 8 ± 4 |  |  |  |  |  |  |  |  |  |  |  |
| COc1ccc2cc([C@H](C)C(=O)[O][Pt+2]3([OH])[N]4C=CC=c5cc(C)c6c(c54)[N]3C=CC=6)ccc2c1.N[C@H]1CCCC[C@@H]1N (stereo partly shown) [Complex 2, [Pt^IV(5-Mephen)(SS-DACH)(NPX)(OH)]^2+] | 368 ± 9 | 160 ± 13 | 130 ± 7 | 44 ± 6 | 0.13 ± 0.027 | 0.68 ± 0.017 |  |  |  |  |  |  |  |  |  |
| COc1ccc2cc([C@H](C)C(=O)[O][Pt+2]3([OH])[N]4C=CC=c5c(C)c(C)c6c(c54)[N]3C=CC=6)ccc2c1.N[C@H]1CCCC[C@@H]1N [Complex 3, [Pt^IV(5,6-Me2phen)(SS-DACH)(NPX)(OH)]^2+] | 351 ± 5 | 152 ± 8 | 104 ± 6 | 37 ± 4 | 0.01 ± 0.002 | 0.22 ± 0.012 |  |  |  |  |  |  |  |  |  |
| COc1ccc2c(c1)c(CC(=O)OCC(=O)[O][Pt-2]13([OH])([NH2+][C@H]4CCCC[C@@H]4[NH2+]1)[n+]1cccc4ccc5ccc[n+]3c5c41)c(C)n2C(=O)c1ccc(Cl)cc1 [Complex 4, [Pt^IV(phen)(SS-DACH)(ACE)(OH)]^2+] | 416 ± 8 | 343 ± 8 | 184 ± 5 | 48 ± 3 | 0.15 ± 0.04 | 1.3 ± 0.15 |  |  |  |  |  |  |  |  |  |
| COc1ccc2c(c1)c(CC(=O)OCC(=O)O)c(C)n2C(=O)c1ccc(Cl)cc1 [ACE, acemetacin] | 494 ± 6 | 371 ± 10 | 295 ± 13 | 76 ± 8 |  |  | > 50 | > 50 |  |  |  |  |  |  |  |
| COc1ccc2cc([C@H](C)C(=O)O)ccc2c1 [NPX, naproxen] | 499 ± 10 | 397 ± 13 | 304 ± 9 |  |  |  | > 50 | > 50 | 83 ± 5 |  |  |  |  |  |  |
| COc1ccc2c(c1)c(CC(=O)OCC(=O)[O][Pt-2]13([OH])([NH2+][C@H]4CCCC[C@@H]4[NH2+]1)[n+]1cccc4c(C)c(C)c5ccc[n+]3c5c41)c(C)n2C(=O)c1ccc(Cl)cc1 [Complex 6, [Pt^IV(5,6-Me2phen)(SS-DACH)(ACE)(OH)]^2+] | 387 ± 7 | 284 ± 11 | 112 ± 8 | 32 ± 3 | 0.00022 ± 0.0001 | 0.16 ± 0.019 |  |  |  | ~21 |  |  |  |  |  |
| N.N.[Cl][Pt][Cl] [Cisplatin, cis-diamminedichloroplatinum(II)] | 256 ± 9 | 236 ± 13 | 199 ± 11 | 9 ± 2 |  |  |  |  |  |  |  |  |  |  |  |
| COc1ccc2c(c1)c(CC(=O)OCC(=O)[O][Pt-2]13([OH])([NH2+][C@H]4CCCC[C@@H]4[NH2+]1)[n+]1cccc4cc(C)c5ccc[n+]3c5c41)c(C)n2C(=O)c1ccc(Cl)cc1 [Complex 5, [Pt^IV(5-Mephen)(SS-DACH)(ACE)(OH)]^2+] | 412 ± 4 | 284 ± 12 | 140 ± 5 | 36 ± 2 | 0.0013 ± 0.0004 | 0.25 ± 0.033 |  |  |  |  | 11,540 fold | at least 920 fold | 17 | 2230 | 5.6 |
| COc1ccc2cc([C@H](C)C(=O)[O][Pt+2]3([OH])[N]4C=CC=c5ccc6c(c54)[N]3C=CC=6)ccc2c1.N[C@H]1CCCC[C@@H]1N [Complex 1, [Pt^IV(phen)(SS-DACH)(NPX)(OH)]^2+] | 382 ± 11 | 211 ± 12 | 163 ± 5 | 55 ± 3 | 0.23 ± 0.017 | 1.47 ± 0.067 |  |  |  |  |  |  |  |  |  |
